Results taken from PubChem BioAssay (NCI).
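A five-concentration, 48-hour dose response in 96-well plates underlies each endpoint, interpolated linearly between surrounding concentrations. GI50 = concentration required for 50% inhibition of growth. TGI denotes the concentration required for complete inhibition of growth.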

Tests used:
Experiment in all cases: NCI-60 cell line screen, 48 h
MALME-3M melanoma = system: MALME-3M melanoma
HOP-92 NSCLC = system: HOP-92 NSCLC
SN12C renal = system: SN12C renal
SK-MEL-5 melanoma = system: SK-MEL-5 melanoma
786-0 renal = system: 786-0 renal
KM12 colon = system: KM12 colon
PC-3 prostate = system: PC-3 prostate
SK-MEL-2 melanoma = system: SK-MEL-2 melanoma
RXF 393 renal = system: RXF 393 renal
OVCAR-3 ovarian = system: OVCAR-3 ovarian
HL-60(TB) leukemia = system: HL-60(TB) leukemia
SW-620 colon = system: SW-620 colon
OVCAR-8 ovarian = system: OVCAR-8 ovarian
UACC-62 melanoma = system: UACC-62 melanoma
ACHN renal = system: ACHN renal
IGROV1 ovarian = system: IGROV1 ovarian
HCT-15 colon = system: HCT-15 colon
SF-268 CNS = system: SF-268 CNS
LOX IMVI melanoma = system: LOX IMVI melanoma
RPMI-8226 leukemia = system: RPMI-8226 leukemia
HCT-116 colon = system: HCT-116 colon
MDA-MB-435 = system: MDA-MB-435
CCRF-CEM leukemia = system: CCRF-CEM leukemia
M14 melanoma = system: M14 melanoma
DU-145 prostate = system: DU-145 prostate
SF-539 CNS = system: SF-539 CNS
SNB-19 CNS = system: SNB-19 CNS
SNB-75 CNS = system: SNB-75 CNS
MOLT-4 leukemia = system: MOLT-4 leukemia
NCI-H226 lung = system: NCI-H226 lung
MCF7 breast = system: MCF7 breast
OVCAR-5 ovarian = system: OVCAR-5 ovarian
NCI-H460 lung = system: NCI-H460 lung
SK-MEL-28 melanoma = system: SK-MEL-28 melanoma
HS 578T breast = system: HS 578T breast
CAKI-1 renal = system: CAKI-1 renal
T-47D breast = system: T-47D breast
SR leukemia = system: SR leukemia
UO-31 renal = system: UO-31 renal
A549 NSCLC = system: A549 NSCLC
SF-295 CNS = system: SF-295 CNS
NCI/ADR-RES ovarian = system: NCI/ADR-RES ovarian
NCI-H522 lung = system: NCI-H522 lung
BT-549 breast = system: BT-549 breast
A498 renal = system: A498 renal
OVCAR-4 ovarian = system: OVCAR-4 ovarian
HCC-2998 colon = system: HCC-2998 colon
MDA-MB-231 breast = system: MDA-MB-231 breast
EKVX NSCLC = system: EKVX NSCLC
HOP-62 NSCLC = system: HOP-62 NSCLC
K-562 leukemia = system: K-562 leukemia
UACC-257 melanoma = system: UACC-257 melanoma
COLO 205 colon = system: COLO 205 colon
U251 CNS = system: U251 CNS
NCI-H23 lung = system: NCI-H23 lung
HT29 colon = system: HT29 colon

SMILES: N#C/C(=C\c1ccc(Cl)cc1)n1nnc2cc(F)c(F)cc21
- GI50 (MALME-3M melanoma): 2060 nM
- TGI (MALME-3M melanoma): 5.34 µM
- GI50 (HOP-92 NSCLC): 1070 nM
- TGI (HOP-92 NSCLC): 2560 nM
- GI50 (SN12C renal): 1890 nM
- TGI (SN12C renal): 4.02 µM
- GI50 (SK-MEL-5 melanoma): 1620 nM
- TGI (SK-MEL-5 melanoma): 3.04 µM
- GI50 (786-0 renal): 1690 nM
- TGI (786-0 renal): 3.28 µM
- GI50 (KM12 colon): 1950 nM
- TGI (KM12 colon): 4.29 µM
- GI50 (PC-3 prostate): 1610 nM
- TGI (PC-3 prostate): 3.53 µM
- GI50 (SK-MEL-2 melanoma): 2030 nM
- TGI (SK-MEL-2 melanoma): 4.83 µM
- GI50 (RXF 393 renal): 1460 nM
- TGI (RXF 393 renal): 3.11 µM
- GI50 (OVCAR-3 ovarian): 1710 nM
- TGI (OVCAR-3 ovarian): 3.22 µM
- GI50 (HL-60(TB) leukemia): 2360 nM
- TGI (HL-60(TB) leukemia): 6.82 µM
- GI50 (SW-620 colon): 1720 nM
- TGI (SW-620 colon): 3.46 µM
- GI50 (OVCAR-8 ovarian): 3.27 µM
- TGI (OVCAR-8 ovarian): > 100 µM
- GI50 (UACC-62 melanoma): 1800 nM
- TGI (UACC-62 melanoma): 3.96 µM
- GI50 (ACHN renal): 1640 nM
- TGI (ACHN renal): 3.02 µM
- GI50 (IGROV1 ovarian): 1970 nM
- TGI (IGROV1 ovarian): 4.46 µM
- GI50 (HCT-15 colon): 1420 nM
- TGI (HCT-15 colon): 3.55 µM
- GI50 (SF-268 CNS): 1980 nM
- TGI (SF-268 CNS): 4.45 µM
- GI50 (LOX IMVI melanoma): 1570 nM
- TGI (LOX IMVI melanoma): 2990 nM
- GI50 (RPMI-8226 leukemia): 1390 nM
- TGI (RPMI-8226 leukemia): 5.29 µM
- GI50 (HCT-116 colon): 1770 nM
- TGI (HCT-116 colon): 3.45 µM
- GI50 (MDA-MB-435): 1760 nM
- TGI (MDA-MB-435): 4.42 µM
- GI50 (CCRF-CEM leukemia): 2010 nM
- TGI (CCRF-CEM leukemia): > 100 µM
- GI50 (M14 melanoma): 1900 nM
- TGI (M14 melanoma): 4.39 µM
- GI50 (DU-145 prostate): 1690 nM
- TGI (DU-145 prostate): 3.11 µM
- GI50 (SF-539 CNS): 1970 nM
- TGI (SF-539 CNS): 3.77 µM
- GI50 (SNB-19 CNS): 1820 nM
- TGI (SNB-19 CNS): 3.78 µM
- GI50 (SNB-75 CNS): 1510 nM
- TGI (SNB-75 CNS): 3.01 µM
- GI50 (MOLT-4 leukemia): 2650 nM
- TGI (MOLT-4 leukemia): > 100 µM
- GI50 (NCI-H226 lung): 2020 nM
- TGI (NCI-H226 lung): 4.54 µM
- GI50 (MCF7 breast): 1530 nM
- TGI (MCF7 breast): 4.49 µM
- GI50 (OVCAR-5 ovarian): 1900 nM
- TGI (OVCAR-5 ovarian): 3.81 µM
- GI50 (NCI-H460 lung): 2170 nM
- TGI (NCI-H460 lung): 4.86 µM
- GI50 (SK-MEL-28 melanoma): 2040 nM
- TGI (SK-MEL-28 melanoma): 4.38 µM
- GI50 (HS 578T breast): 2760 nM
- TGI (HS 578T breast): 8.49 µM
- GI50 (CAKI-1 renal): 1700 nM
- TGI (CAKI-1 renal): 3.2 µM
- GI50 (T-47D breast): 1310 nM
- TGI (T-47D breast): 4.72 µM
- GI50 (SR leukemia): 1330 nM
- TGI (SR leukemia): > 100 µM
- GI50 (UO-31 renal): 1550 nM
- TGI (UO-31 renal): 2880 nM
- GI50 (A549 NSCLC): 2700 nM
- TGI (A549 NSCLC): 21.5 µM
- GI50 (SF-295 CNS): 2260 nM
- TGI (SF-295 CNS): 5.53 µM
- GI50 (NCI/ADR-RES ovarian): 2360 nM
- TGI (NCI/ADR-RES ovarian): 7.7 µM
- GI50 (NCI-H522 lung): 1590 nM
- TGI (NCI-H522 lung): 3.85 µM
- GI50 (BT-549 breast): 1740 nM
- TGI (BT-549 breast): 3.43 µM
- GI50 (A498 renal): 1280 nM
- TGI (A498 renal): 2660 nM
- GI50 (OVCAR-4 ovarian): 1590 nM
- TGI (OVCAR-4 ovarian): 3.48 µM
- GI50 (HCC-2998 colon): 1740 nM
- TGI (HCC-2998 colon): 3.29 µM
- GI50 (MDA-MB-231 breast): 1850 nM
- TGI (MDA-MB-231 breast): 4.47 µM
- GI50 (EKVX NSCLC): 1670 nM
- TGI (EKVX NSCLC): 3.12 µM
- GI50 (HOP-62 NSCLC): 2290 nM
- TGI (HOP-62 NSCLC): 6.32 µM
- GI50 (K-562 leukemia): 2190 nM
- TGI (K-562 leukemia): > 100 µM
- GI50 (UACC-257 melanoma): 2140 nM
- TGI (UACC-257 melanoma): 5.58 µM
- GI50 (COLO 205 colon): 2180 nM
- TGI (COLO 205 colon): 4.83 µM
- GI50 (U251 CNS): 1620 nM
- TGI (U251 CNS): 3.06 µM
- GI50 (NCI-H23 lung): 1730 nM
- TGI (NCI-H23 lung): 3.71 µM
- GI50 (HT29 colon): 2500 nM
- TGI (HT29 colon): 5.61 µM
